The record followed here is patent US4652642A, “Azidobenzazepines” (SmithKline Beckman Corporation, priority 1984, dated 1987).

Assay [1] relates to α2 sites. The assay is described as follows: photolytic inactivation of α2 binding on ultraviolet irradiation.
Assay [2] has as its target T1, prejunctional alpha2 (α2-adrenoceptor) (Cavia porcellus, UniProt Q60474).
T1 construct: The left atrium is removed, dissected free of extraneous tissue and mounted in a 2 ml superfusion chamber; from tissue; host or cells: guinea pig (male) left atrium, sympathetic nerve endings
T1 sequence (Q60474 1-464): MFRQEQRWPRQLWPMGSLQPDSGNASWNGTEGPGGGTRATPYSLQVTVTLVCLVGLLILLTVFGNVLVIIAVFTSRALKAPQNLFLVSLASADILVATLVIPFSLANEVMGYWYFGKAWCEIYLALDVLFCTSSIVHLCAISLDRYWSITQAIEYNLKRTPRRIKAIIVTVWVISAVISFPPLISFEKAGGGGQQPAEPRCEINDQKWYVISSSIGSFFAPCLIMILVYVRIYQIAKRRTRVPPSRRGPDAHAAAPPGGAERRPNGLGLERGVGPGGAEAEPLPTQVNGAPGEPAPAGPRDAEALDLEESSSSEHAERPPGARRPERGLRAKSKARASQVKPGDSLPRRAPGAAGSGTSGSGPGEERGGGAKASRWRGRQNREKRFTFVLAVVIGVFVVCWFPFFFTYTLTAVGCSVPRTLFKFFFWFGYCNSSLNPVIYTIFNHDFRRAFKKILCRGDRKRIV
The assay is described as follows: prejunctional alpha2-antagonist activity, isolated superfused guinea pig left atrium (clonidine concentration-response shift). The assay is classed as cell-based. The settings on record: clonidine as agonist, superfused with antagonist for thirty minutes, read-out: receptor dissociation constant of the antagonist (KB). Here is the method: Briefly, the heart is removed from a pentobarbital-anesthetized male guinea pig. The left atrium is removed, dissected free of extraneous tissue and mounted in a 2 ml superfusion chamber. The tissue is paced at 60 pulse/minute and the sympathetic nerves excited at 6 minute intervals by field stimulation. The response to nerve stimulation is measured as the difference in contractile force between the basal contraction and peak contraction following a nerve stimulation. A concentration-response curve for clonidine (a known alpha2 -agonist) is prepared by administering increasing concentrations of clonidine following each successive stimulation. The tissue is, then, superfused with the alpha2 -antagonist to be tested for thirty minutes and the clonidine concentration-effect curve is repeated in the presence of antagonist. The receptor dissociation constant of the antagonist (KB) is defined as the antagonist concentration required to shift the log concentration-response curve of the agonist to the right by a factor of 2.
Pharmacol. 309 217-224 (1979). The preferred species of this invention, i.e. the 9-azido-3-methyl-6-chloro compound, has a KB value of 158 nM in the atrium test.

Assay [3] relates to α2 sites. The experiment in a line: competitive binding to α2 sites.
The test system of assay [4] is α2 sites. The assay is described as follows: protection against photolytic deactivation by concomitant adrenoceptor agents. The settings on record: concomitant with the 9-azido-3-methyl-6-chloro compound, ultraviolet light. The format is binding.

With `CN1CCc2c(Cl)ccc(N=[N+]=[N-])c2CC1` [9-azido-3-methyl-6-chloro compound, 9-azido-6-chloro-3-methyl-2,3,4,5-tetrahydro-1H-3-benzazepine], the “binding effect when irradiated with ultraviolet light” value with α2 sites [1] is reported as “the binding effect is made irreversible”. Besides, the “dependence of photolytic inactivation” value with α2 sites [1] (irradiated with ultraviolet light) was “concentration and time dependent”. Further, the Kb (as a rule, the equilibrium dissociation constant of an antagonist, usually derived from a functional assay) in assay [2] worked out at 158 nM. Further, in the assay on α2 sites [3] (without irradiation), the “mode of binding to α2 sites” value was “bind competitively”. Also, the Ki (as a rule, the dissociation constant of the complex between target and ligand, obtained from inhibition or displacement) on α2 sites [3] (α2 sites) was 42 nM.
For the compound `COc1cc2nc(N3CCN(C(=O)c4ccco4)CC3)nc(N)c2cc1OC` [Prazosin], in the assay on α2 sites [4], the “effect of concomitant presence on photolytic deactivation” value is listed as “no effect”.
On the same count and under the same terms, the same measure for `Nc1cc(Cl)c(NC2=NCCN2)c(Cl)c1` [p-aminoclonidine]: “complete protection”; for `Cc1ccc(N(CC2=NCCN2)c2cccc(O)c2)cc1` [phentolamine]: “partially blocks the photolytic deactivation”.
